Experimental data published in the NIST ThermoML archive (doi:10.1007/s10765-010-0737-5).
± gives the expanded uncertainty stated by the source.

Experiments:
[1] = Liquid; for viscosity: 101 kPa, Capillary tube (Ostwald / Ubbelohde) method; for mass density: 101.3 kPa
[2] = xn = mol fraction of the nth substance listed; conditions: Liquid, x2 = 0; for viscosity: 101 kPa, Capillary tube (Ostwald / Ubbelohde) method; for mass density: 101.3 kPa

CCCCCl [1-chlorobutane]
[1]
Conditions	mass density [kg/m3]	viscosity [mPa·s]
283.15 K	897.339 ± 0.59	0.4993 ± 0.0051
288.15 K	891.855 ± 0.6	0.4701 ± 0.0049
293.15 K	886.335 ± 0.61	0.4433 ± 0.0047
298.15 K	880.705 ± 0.62	0.4214 ± 0.0045
303.15 K	875.204 ± 0.63	0.405 ± 0.0043
308.15 K	869.585 ± 0.64	0.3885 ± 0.0042
313.15 K	863.882 ± 0.65	0.3642 ± 0.004

CC(C)OC(C)C [diisopropyl ether] + CC(C)(C)Cl
[2]
Conditions	mass density [kg/m3]	viscosity [mPa·s]
283.15 K	733.833 ± 0.92	0.3646 ± 0.004
288.15 K	728.692 ± 0.93	0.3486 ± 0.0039
293.15 K	723.509 ± 0.94	0.334 ± 0.0037
298.15 K	718.289 ± 0.95	0.3178 ± 0.0036
303.15 K	713.032 ± 0.96	0.3001 ± 0.0034
308.15 K	707.727 ± 0.97	0.2857 ± 0.0033
313.15 K	702.378 ± 0.98	0.2723 ± 0.0032

CCC(C)Cl (stereo unspecified) [2-chlorobutane]
[1]
Conditions	mass density [kg/m3]	viscosity [mPa·s]
283.15 K	884.34 ± 0.61	0.4631 ± 0.0048
288.15 K	878.756 ± 0.62	0.4365 ± 0.0046
293.15 K	873.13 ± 0.63	0.4167 ± 0.0044
298.15 K	867.474 ± 0.65	0.3993 ± 0.0043
303.15 K	861.779 ± 0.66	0.38 ± 0.0041
308.15 K	856.044 ± 0.67	0.3615 ± 0.004
313.15 K	850.266 ± 0.68	0.3443 ± 0.0038

CC(C)OC(C)C [diisopropyl ether] + CC(C)CCl
[2]
Conditions	mass density [kg/m3]	viscosity [mPa·s]
283.15 K	733.833 ± 0.92	0.3646 ± 0.004
288.15 K	728.692 ± 0.93	0.3486 ± 0.0039
293.15 K	723.509 ± 0.94	0.334 ± 0.0037
298.15 K	718.289 ± 0.95	0.3178 ± 0.0036
303.15 K	713.032 ± 0.96	0.3001 ± 0.0034
308.15 K	707.727 ± 0.97	0.2857 ± 0.0033
313.15 K	702.378 ± 0.98	0.2723 ± 0.0032

CC(C)OC(C)C [diisopropyl ether] + CCCCCl
[2]
Conditions	mass density [kg/m3]	viscosity [mPa·s]
283.15 K	733.833 ± 0.92	0.3646 ± 0.004
288.15 K	728.692 ± 0.93	0.3486 ± 0.0039
293.15 K	723.509 ± 0.94	0.334 ± 0.0037
298.15 K	718.289 ± 0.95	0.3178 ± 0.0036
303.15 K	713.032 ± 0.96	0.3001 ± 0.0034
308.15 K	707.727 ± 0.97	0.2857 ± 0.0033
313.15 K	702.378 ± 0.98	0.2723 ± 0.0032

CC(C)CCl [1-chloro-2-methylpropane]
[1]
Conditions	mass density [kg/m3]	viscosity [mPa·s]
283.15 K	888.845 ± 0.6	0.5155 ± 0.0053
288.15 K	883.211 ± 0.61	0.4833 ± 0.005
293.15 K	877.539 ± 0.63	0.454 ± 0.0047
298.15 K	871.533 ± 0.64	0.4296 ± 0.0045
303.15 K	866.096 ± 0.65	0.4112 ± 0.0044
308.15 K	860.319 ± 0.66	0.3921 ± 0.0042
313.15 K	853.902 ± 0.67	0.3726 ± 0.0041

CC(C)OC(C)C [diisopropyl ether]
[1]
Conditions	mass density [kg/m3]	viscosity [mPa·s]
283.15 K	733.833 ± 0.92	0.3646 ± 0.004
288.15 K	728.692 ± 0.93	0.3486 ± 0.0039
293.15 K	723.509 ± 0.94	0.334 ± 0.0037
298.15 K	718.289 ± 0.95	0.3178 ± 0.0036
303.15 K	713.032 ± 0.96	0.3001 ± 0.0034
308.15 K	707.727 ± 0.97	0.2857 ± 0.0033
313.15 K	702.378 ± 0.98	0.2723 ± 0.0032

CC(C)(C)Cl [2-chloro-2-methylpropane]
[1]
Conditions	mass density [kg/m3]	viscosity [mPa·s]
283.15 K	855.249 ± 0.67	0.598 ± 0.006
288.15 K	849.243 ± 0.68	0.5538 ± 0.0056
293.15 K	843.191 ± 0.69	0.5135 ± 0.0053
298.15 K	837.096 ± 0.71	0.4768 ± 0.0049
303.15 K	830.958 ± 0.72	0.4438 ± 0.0047
308.15 K	824.772 ± 0.73	0.4196 ± 0.0045
313.15 K	818.536 ± 0.74	0.3904 ± 0.0042

CC(C)OC(C)C [diisopropyl ether] + CCC(C)Cl
[2]
Conditions	mass density [kg/m3]	viscosity [mPa·s]
283.15 K	733.833 ± 0.92	0.3646 ± 0.004
288.15 K	728.692 ± 0.93	0.3486 ± 0.0039
293.15 K	723.509 ± 0.94	0.334 ± 0.0037
298.15 K	718.289 ± 0.95	0.3178 ± 0.0036
303.15 K	713.032 ± 0.96	0.3001 ± 0.0034
308.15 K	707.727 ± 0.97	0.2857 ± 0.0033
313.15 K	702.378 ± 0.98	0.2723 ± 0.0032
